Data set [1] in a line: in vitro. The conditions noted are these: human, liver microsomes.
Data set [2] is described as follows: in vitro. The conditions noted are these: mouse, liver microsomes.
The conditions of data set [3]: mouse, microsomes, 0.5 h, 2 µM.
Data set [4] relates to Liver microsomes. Particulars: human, 0.5 h, 2 µM.
Data set [5] in a line: in vitro. The conditions noted are these: mouse, liver microsomes. This is another data set of the same source. On the technique in general: Liver microsomes are a subcellular fraction often used to study metabolism.
A short description of data set [6]: in vitro. The conditions noted are these: human, liver microsomes. This is another data set of the same source.
A short description of data set [7]: Clearance in rat. The class given is ADME, organism-based. The conditions noted are these: in vivo.
Data set [8] in a line: Half life in rat. The class given is ADME, organism-based. The conditions noted are these: in vivo.
For data set [9] the following is noted: mouse, microsomes, 0.5 h, 1 µM.
Data set [10] is described as follows: AUC in rat. Format: ADME, organism-based. Particulars: plasma.
Data set [11] can be described thus: Oral bioavailability in rat. Particulars: in vivo. Format: ADME, organism-based.
For data set [12], the system named is Liver microsomes. Particulars: human, 0.5 h, 1 µM.

What is called amount remaining is the share of the starting amount still present when the sample was taken. A higher amount remaining goes with less turnover. Consider `O=S(=O)(c1ccc(Cl)cc1)N1C2Cc3[nH]ncc3C1CC(/C=C\Cl)C2` (stereo unspecified), for which the share remaining at 0.5 h, 1 µM in data set [1] (Stability) was found to be 14%; in [2] (Stability), 3%. Moreover, the Stability entry in data set [3] and in [4] was “Not Active” throughout.
In the case of `O=S(=O)(c1ccc(Cl)cc1)N1C2Cc3[nH]ncc3C1CC(/C=C/Cl)C2` (stereo unspecified), the amount remaining at 0.5 h, 2 µM in data set [5] (Stability) is 37%; in data set [6] (Stability), 1%. Moreover, the amount remaining at 0.5 h, 1 µM in [1] (Stability) is 6%; in data set [2] (Stability) it was 7%.
On the same counts, the results for `O=S(=O)(c1ccc(Cl)cc1)N1C2Cc3[nH]ncc3C1CC(/C=C/C(F)(F)F)C2` (stereo unspecified) are 39%, 2%, 6% and 36%.
What is called clearance is a measure of how efficiently the substance is removed, as volume per time. High values mean efficient removal, low ones inefficient removal. As a reminder, the half-life is the time needed for the level to fall by half in the phase considered. Higher therefore signals slow loss. One may read the AUC as the area under the concentration-time curve, a measure of exposure. High values mean more exposure, low ones less exposure. A word on the bioavailability: it is dose-corrected exposure relative to a reference, in per cent. A higher bioavailability goes with much systemic uptake. On to `O=S(=O)(c1ccc(Cl)cc1)N1C2COCC1c1cn[nH]c1C2` (stereo in doubt), for which the clearance in data set [7] was 31.2 mL/min/kg. Also, in data set [8], the half-life is 1.15 h. The Stability came to 80% in [9], 78% in [12], 100% in data set [3] and 86% in [4]. For the same molecule, in data set [10], the AUC is 2.9 µM·h. Further, the bioavailability in data set [11] came out at 19%.
Turning to `N#CC1CC2Cc3[nH]ncc3C(C1)N2S(=O)(=O)c1ccc(Cl)cc1` (stereo in doubt), the fraction remaining at 0.5 h, 2 µM in data set [5] (Stability) turned out to be 81%; in data set [6] (Stability), 45%. Moreover, the clearance in [7] was 28.4 mL/min/kg. The same molecule yielded a half-life in [8] of 1.02 h. Further, the Stability is on record as 74% in [9] and 70% in data set [12]. In addition, in [10], the AUC worked out at 3.4 µM·h. The bioavailability in [11] turned out to be 21%.
Take `O=C(O)C1CC2Cc3[nH]ncc3C(C1)N2S(=O)(=O)c1ccc(Cl)cc1` (stereo unspecified): the Stability entry in data set [9], in data set [12], in data set [3] and in data set [4] was “Not Active” in each case.
On to `N#CC1CC2Cc3[nH]ncc3C(C1)N2S(=O)(=O)c1ccc(Cl)cc1` (stereo in doubt; form 2), for which the amount remaining at 0.5 h, 1 µM was 68% in data set [1] (Stability) and 86% in data set [2] (Stability). The Stability result in data set [3] and in data set [4] was “Not Active” in each case.
As to `O=S(=O)(c1ccc(Cl)cc1)N1C2Cc3[nH]ncc3C1CC(/C=C\C(F)(F)F)C2` (stereo unspecified), the amount remaining at 0.5 h, 1 µM in [1] (Stability) was 38%; in [2] (Stability), 17%. Besides, the Stability entry in [3] and in data set [4] was “Not Active” in each case.
Take `CN(C)C(=O)N1CC2Cc3[nH]ncc3C(C1)N2S(=O)(=O)c1ccc(Cl)cc1` (stereo unspecified): the fraction remaining at 0.5 h, 1 µM turned out to be 86% in data set [1] (Stability) and 56% in data set [2] (Stability). The Stability entry in data set [3] and in data set [4] was “Not Active” in each case.
Regarding `O=S(=O)(c1ccc(Cl)cc1)N1C2CCCC1c1cn[nH]c1C2` (stereo unspecified), the results for the amount remaining at 0.5 h, 2 µM in data set [5] (Stability) and in [6] (Stability) were 5% and 0%, respectively. Further, the clearance in data set [7] was 38.9 mL/min/kg. The amount remaining at 0.5 h, 1 µM in data set [1] (Stability) stood at 48%; in data set [2] (Stability) it was 15%. The half-life in data set [8] was 0.4 h. The molecule also came in with an exposure (AUC) in [10] of 0.16 µM·h. Besides, the bioavailability in data set [11] was determined as 2%.
For `Cl.O=S(=O)(c1ccc(Cl)cc1)N1C2COCC1c1cn[nH]c1C2` (stereo unspecified), the Stability in [9] came out at 78%; in data set [12], 81%; in data set [3], 94%; in data set [4], 71%.
With `CS(=O)(=O)N1CC2Cc3[nH]ncc3C(C1)N2S(=O)(=O)c1ccc(Cl)cc1` (stereo unspecified), the amount remaining at 0.5 h, 2 µM was found to be 96% in data set [5] and 55% in data set [6]. Besides, the figures for the fraction remaining at 0.5 h, 1 µM in [1] and in data set [2] were 84% and 80%, respectively.
As to `N#CC1CC2Cc3[nH]ncc3C(C1)N2S(=O)(=O)c1ccc(Cl)cc1` (stereo in doubt; form 1), the Stability is listed as 80% in [9] and 72% in data set [12].
With `O=S(=O)(c1ccc(Cl)cc1)N1C2COCC1c1cn[nH]c1C2` (stereo in doubt; 32), the fraction remaining at 0.5 h, 2 µM in data set [5] (Stability) was determined as 93%; in data set [6] (Stability), 71%. This molecule returned a share remaining at 0.5 h, 1 µM in data set [2] (Stability) of 75%. The molecule further came in with a Stability in [12] of 100%.
